{"source": "PubChem BioAssay AID1996"}
{"conditions": "buffer; pH 7.4; 200.0 µM", "units": {"solubility kinetic": "µg/mL"}}
{"molecule": "NC(=O)CSc1nc(C23CC4CC(CC(C4)C2)C3)nc2ccccc12", "solubility kinetic": 1.2}
{"molecule": "Cc1ccccc1OCCCn1c(CO)nc2ccccc21", "solubility kinetic": 12.9}
{"molecule": "CC(C)c1cccc(C(C)C)c1OC(=O)NC(=O)c1c(F)cccc1F", "solubility kinetic": 17.4}
{"molecule": "COc1ccc(-c2cc(C(=O)NC3CCCC3)c3ccccc3n2)cc1OC", "solubility kinetic": 1.6}
{"molecule": "Cc1ncc([N+](=O)[O-])n1CCOC(=O)C12CC3CC(CC(C3)C1)C2", "solubility kinetic": 5.3}
{"molecule": "Nc1ncnc2c1ncn2C1OC(C(=O)NC2CC2)C(O)C1O", "note": "(configuration not stated)", "solubility kinetic": "> 48"}
{"molecule": "N#CCCN(Cc1ccncc1)C(=S)NC1CC2C=CC1C2", "note": "(configuration not stated)", "solubility kinetic": 46.3}
{"molecule": "N#Cc1cccc(C(=O)N(CCc2ccccc2)Cc2cccs2)c1", "solubility kinetic": 12.9}
{"molecule": "CN(C(=O)c1ccoc1)c1ccc2ccccc2c1", "solubility kinetic": 29.1}
{"molecule": "O=C(CSc1ncccn1)N1CCCc2ccccc21", "solubility kinetic": "> 42.8"}
{"molecule": "CCS(=O)(=O)NCCNc1ccc([N+](=O)[O-])cc1", "solubility kinetic": "> 41"}
{"molecule": "O=C(COC(=O)c1cccnc1Cl)NCc1cccs1", "solubility kinetic": 44.1}
{"molecule": "Cc1c(C)n(CCCN(C)C)c2ncnc(NC3CCCCC3)c12", "solubility kinetic": 46.9}
{"molecule": "O=C(CS(=O)(=O)c1ccc2ccccc2c1)N1CCCCCC1", "solubility kinetic": 47.1}
{"molecule": "CCCN(C(=O)c1cn(C)c(=O)c2ccccc12)c1ccccc1C", "solubility kinetic": "> 50.2"}
{"molecule": "N#CCCN=C(NS(=O)(=O)c1ccccc1)c1ccccc1", "solubility kinetic": "> 47"}
{"molecule": "Cc1nn(C)c(C)c1NC(=O)COc1ccccc1C#N", "solubility kinetic": "> 42.6"}
{"molecule": "COc1ccccc1Nc1nc(N)nc(CN2CCC(C)CC2)n1", "solubility kinetic": "> 49.3"}
{"molecule": "CC(=O)N(C)c1ccc(NC(=S)NC(=O)/C=C/c2ccco2)cc1", "solubility kinetic": 11.6}
{"molecule": "Nc1c(C(=O)C2CC2)sc2nc3c(cc12)CCC3", "solubility kinetic": 2.2}
{"molecule": "CN1CCN(c2ccc(C(F)(F)F)cc2N)CC1", "solubility kinetic": "> 38.9"}
{"molecule": "C=CCn1c(O)c(C=Nc2ccc(F)cc2)c(=O)[nH]c1=O", "solubility kinetic": 19.3}
{"molecule": "CC(CCc1ccccc1)NC(=O)CC(C)c1ccccc1", "note": "(configuration not stated)", "solubility kinetic": 43.4}
{"molecule": "O=C(OCC(=O)N1CCCCC1)c1c[nH]c2ccccc12", "solubility kinetic": "> 42.9"}
{"molecule": "O=[N+]([O-])c1ccc(N2CCN(c3ccccc3Cl)CC2)cn1", "solubility kinetic": 2}
{"molecule": "N#Cc1ccccc1OCC(=O)C1CC1", "solubility kinetic": 28.4}
{"molecule": "C=CCn1c(O)c(C(C)=NC(C)c2ccccc2)c(=O)[nH]c1=O", "note": "(configuration not stated)", "solubility kinetic": "> 47"}
{"molecule": "NC(=O)CSc1nc(-c2ccccc2)nc2ccccc12", "solubility kinetic": 0.7}
{"molecule": "COCC(=O)N1CCN(c2nc3ccccc3o2)CC1", "solubility kinetic": "> 41.3"}
{"molecule": "OCC(O)CN1CCN(c2ccccc2)CC1", "note": "(configuration not stated)", "solubility kinetic": "> 35.4"}
{"molecule": "COc1ccccc1C1NC(=O)c2ccccc2O1", "note": "(configuration not stated)", "solubility kinetic": "> 38.3"}
{"molecule": "Cc1cc(NC(=O)CSc2nc3ccccc3cc2C#N)no1", "solubility kinetic": 2.9}
{"molecule": "COc1ccc(CNC(=O)CSc2nc(SC)ns2)cc1", "solubility kinetic": 26.4}
{"molecule": "Cc1ccc2nc(-c3ccc(Br)cc3)cn2c1", "solubility kinetic": "< 0.3"}
{"molecule": "COc1ccccc1N1CCN(c2cnccn2)CC1", "solubility kinetic": "> 40.6"}
{"molecule": "O=C(/C=C/NCc1cccnc1)c1ccc(-c2ccccc2)cc1", "solubility kinetic": 2.8}
{"molecule": "CCn1c(C(O)c2cc(OC)c(OC)c(OC)c2)nc2ccccc21", "note": "(configuration not stated)", "solubility kinetic": 47.7}
{"molecule": "O=c1o[nH]c(-c2ccccc2)c1-c1ccccc1", "solubility kinetic": 35}
{"molecule": "CCOC(=O)c1sc2nc(C)[nH]c(=O)c2c1C", "solubility kinetic": 2.7}
{"molecule": "C=CCn1c(SCC(=O)N(C)CC(=O)Nc2ccc(C)cc2)nnc1-c1ccncc1", "solubility kinetic": "> 65.5"}
{"molecule": "CC(=O)c1ccc(N2CCN(CC(O)c3ccccc3)CC2)cc1", "note": "(configuration not stated)", "solubility kinetic": "> 48.7"}
{"molecule": "CC(=O)c1c(C)n(-c2ccc(C)cc2)c2ccc(O)cc12", "solubility kinetic": "< 0.6"}
{"molecule": "CC1(C)CC2(CCO1)OC(=O)CC2C(=O)Nc1c(Cl)cccc1Cl", "note": "(configuration not stated)", "solubility kinetic": 52.9}
{"molecule": "O=C(O)CC1(CC(=O)NCc2ccccn2)CCCCC1", "solubility kinetic": "> 43.6"}
{"molecule": "O=C(Nc1ccc2ccccc2c1)c1ccccc1F", "solubility kinetic": "< 0.6"}
{"molecule": "O=[N+]([O-])c1ccc(Cl)c(S(=O)(=O)n2ccnc2)c1", "solubility kinetic": "> 43.2"}
{"molecule": "CCOc1ccc(CNc2ccc(N3CCN(Cc4ccccc4)CC3)cc2)cc1", "solubility kinetic": 0.9}
{"molecule": "O=C(CCn1cnc2ccccc2c1=O)Nc1cccc(Cl)c1Cl", "solubility kinetic": 3.8}
{"molecule": "O=C(CN1CCN(c2ccc(Cl)cc2)CC1)c1ccccc1", "solubility kinetic": 18.7}
{"molecule": "N#C/C(=C\\c1ccccc1O)C(=O)Nc1cccnc1", "solubility kinetic": 2.6}
{"molecule": "Cc1cc(F)ccc1S(=O)(=O)NCC1CC2CCC1C2", "note": "(configuration not stated)", "solubility kinetic": 4.2}
{"molecule": "O=C(CCCSc1ccc(Cl)cc1)Nc1ccccc1O", "solubility kinetic": 8.6}
{"molecule": "O=c1[nH]c(COc2ccccc2)nc2ccccc12", "solubility kinetic": 4.1}
{"molecule": "O=C(Cn1cnc2cc([N+](=O)[O-])ccc2c1=O)N1CCN(S(=O)(=O)c2ccccc2)CC1", "solubility kinetic": 11}
{"molecule": "CC(C(=O)NC1CCCCC1)N1C(=O)C2C3C=CC(C3)C2C1=O", "note": "(configuration not stated)", "solubility kinetic": "> 47.5"}
{"molecule": "CN(C)c1cc[n+](CC(=O)Nc2ccccc2C(F)(F)F)cc1.[Cl-]", "solubility kinetic": "> 54"}
{"molecule": "COCc1cc(=O)[nH]c(-c2csc(C)n2)n1", "solubility kinetic": "> 35.6"}
{"molecule": "C=CCn1c(O)c(C=Nc2c(C)n(C)n(-c3ccccc3)c2=O)c(=O)[nH]c1=O", "solubility kinetic": "> 57.2"}
{"molecule": "COc1nc(-c2ccc(Cl)cc2Cl)nc2ccccc12", "solubility kinetic": "< 0.3"}
{"molecule": "COc1ccc(S(=O)(=O)NC(C)C(=O)N2CCCCCC2)cc1", "note": "(configuration not stated)", "solubility kinetic": "> 51.1"}
{"molecule": "COc1ccc(-c2cc(-c3cccnc3)c(C#N)c(N)n2)cc1", "solubility kinetic": 0.6}
{"molecule": "Nc1nccc(-c2cccs2)n1", "solubility kinetic": "> 26.6"}
{"molecule": "Cc1ccc(CNC2CCCCC2)s1.Cl", "solubility kinetic": "> 36.9"}
{"molecule": "Nc1nc(NCc2ccco2)nc(N2CCOCC2)c1[N+](=O)[O-]", "solubility kinetic": "> 48"}
{"molecule": "COc1ccc(CCC(=O)NCCc2nc3ccccc3[nH]2)cc1", "solubility kinetic": 8.8}
{"molecule": "O=C(Nc1ccnc(-c2ccncc2)n1)c1ccccc1Cl", "solubility kinetic": 0.9}
{"molecule": "COc1ccccc1OCCC(=O)Nc1ccc2c(c1)OCO2", "solubility kinetic": "> 47.3"}
{"molecule": "O=C(Nc1ncccn1)c1cccc(F)c1", "solubility kinetic": "> 32.6"}
{"molecule": "N=c1oc2ccccc2cc1C(=O)Nc1ccc(F)cc1", "solubility kinetic": 0.6}
{"molecule": "O=C(OCc1ccc(Cl)c(Cl)c1)c1ccc[nH]1", "solubility kinetic": 1.9}
{"molecule": "Nc1cc(C(F)(F)F)ccc1NCCc1ccccn1", "solubility kinetic": 36.8}
{"molecule": "CC1CCN(C(=O)CN2C(=O)c3cccc4cccc(c34)C2=O)CC1", "solubility kinetic": 2.1}
{"molecule": "O=C(Nc1ccc(Cl)cc1Cl)c1ccc(Br)o1", "solubility kinetic": "< 0.7"}
{"molecule": "S=C(Nc1ccccn1)Nc1ccccc1Cl", "solubility kinetic": 2.1}
{"molecule": "Fc1ccccc1-c1nc(-c2cnccc2C(F)(F)F)no1", "solubility kinetic": 8}
{"molecule": "Cc1cccc(CN2CCN(c3ncccn3)CC2)c1", "solubility kinetic": 30.6}
{"molecule": "Cn1cccc1C(=O)OCC(=O)NCCc1ccc(S(N)(=O)=O)cc1", "solubility kinetic": "> 54.8"}
{"molecule": "CN(C)c1ccc(C2CC(=O)C=C(Nc3ccccc3N)C2)cc1", "note": "(configuration not stated)", "solubility kinetic": 48.2}
{"molecule": "O=C(C1CCN(S(=O)(=O)c2ccc(Cl)cc2)CC1)N1CCCC1", "solubility kinetic": 35.9}
{"molecule": "COC(=O)c1c(C)oc(C)c1S(=O)(=O)N(C)C1CCCCC1", "solubility kinetic": 38.9}
{"molecule": "CCNC(=S)Nc1ccc(Cc2ccncc2)cc1", "solubility kinetic": 38.3}
{"molecule": "O=C(Nc1ccc(F)cc1)c1cccc(N2C(=O)c3ccccc3C2=O)c1", "solubility kinetic": 0.7}
{"molecule": "O=C(CNC(=O)c1cccs1)NCC(=O)OCC(=O)c1ccccc1", "solubility kinetic": "> 54.1"}
{"molecule": "O=C(CSCc1ccc(C(=O)O)cc1)Nc1ccc2ccccc2c1", "solubility kinetic": "> 52.7"}
{"molecule": "Cc1cc(C)c2oc(C(=O)NCc3ccccc3)cc(=O)c2c1", "solubility kinetic": 2.3}
{"molecule": "CC(=O)c1cc(F)ccc1OCC(=O)Nc1ccc2c(c1)OCO2", "solubility kinetic": 7.8}
{"molecule": "CCc1cc(C(=O)NC(C)C2CCCO2)cs1", "note": "(configuration not stated)", "solubility kinetic": "> 38"}
